In patent publication US20220017516A1, “LOX INHIBITORS” (THE INSTITUTE OF CANCER RESEARCH: ROYAL CANCER HOSPITAL, priority 2018, published 2022):
Read-outs that look alike come from different tables or passages of the source.

Tests used:
[1] = target: T1, LOX (Mus musculus, UniProt P28301); experiment: LOX activity in cysts assay (roGFP2 LOX biosensor in MDCK cysts); format: cell-based; conditions: for inhibition at 10 µM: read-out: Cyst LOX @ 10 uM (% inhibition)
T1 construct: Full length LOX cDNA was then PCR cloned into pEGFP-N1 (Clonetech), or biosensor vector proGFP2—N1; expressed in transfected cells; host or cells: MDCK cells grown as cysts on Matrigel
T1 sequence (P28301 163-411): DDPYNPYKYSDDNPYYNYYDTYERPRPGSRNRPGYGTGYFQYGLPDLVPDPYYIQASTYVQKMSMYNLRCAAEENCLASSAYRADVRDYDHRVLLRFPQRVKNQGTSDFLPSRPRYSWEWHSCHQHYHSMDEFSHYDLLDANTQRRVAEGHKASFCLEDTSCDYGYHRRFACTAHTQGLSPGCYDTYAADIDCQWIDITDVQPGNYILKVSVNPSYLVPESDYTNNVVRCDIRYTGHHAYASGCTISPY
Method: All cell lines used in this study were purchased from American Type Culture Collection (ATCC). Mycoplasma contamination was routinely monitored by PCR. Cells used were not found to be Mycoplasma positive. MDCK cell lines were cultured in Dulbecco's Modified Eagle Medium (DMEM) supplemented with 10% fetal bovine serum (FBS) and 1% Penicillin Streptomycin solution (Pen Strep). For GFP constructs transfection in MDCK cells, lipofectamine 3000 was used according to manufactures protocols. Cells were either selected with G418 (Life Technologies) at 5 mg/ml. All cell culture reagents were purchased from Life Technologies.
To produce MDCK cysts, cells were cultured on Matrigel (Corning) with 2% Matrigel supplemented in DMEM with 10% FBS. Cysts were allowed to form for 10 days before subsequent studies.
Mouse LOX cDNA was purchased from OriGene. Full length LOX cDNA was then PCR cloned into pEGFP-N1 (Clonetech), or biosensor vector proGFP2—N1 (Hanson, 2004) using the following primers, […] (forward primer) and […] (reverse primer). For the insertion into pEGFP-N1 or proGFP2—N1, Nhel and Xhol restriction sites were added to forward and reverse primers accordingly. Mutant LOX constructs were made using QuickChange II site-directed mutagenesis kit (Agilent Technologies) following manufacture's protocol using LOX-GFP as template. To generate, roGFP2 versions of LOX mutant constructs, LOX mutant cDNA was transferred from pEGFP-N1 to proGFP2—N1 using Nhel and Xhol.
All photomicrographs were taken with a Leica TCS SP8 X confocal system. For LOX biosensor imaging, live MDCK cysts were used. The oxidised biosensor was excited using a 405 nm laser, while the reduced biosensor was excited with a 488 nm laser. Emission of the biosensor was recorded at 500 nm-530 nm range using sequential scans. Ratio images were generated following a published protocol {Kardash, 2011 #376}. Note, while the published protocol generates YFP/CFP ratio images, we used it to generate Oxidised/Reduced (roGFP2 ratio) ratio images. The roGFP2 ratio at the basal surface of MDCK cysts was used to indicate LOX inhibition. LOX inhibitors were added 30 min prior to imaging.
For clarity, readout for DMSO treated cysts represents 0% inhibition (no inhibition) and readout for BAPN at 1 mM is used as 100% inhibition (full inhibition).

[2] = target: T2, LOXL3 (Homo sapiens, UniProt P58215); experiment: LOX isoform activity assay (ROS Glo), LOXL3; format: biochemical; conditions: 1 h incubation with enzyme
T2 construct: purchased R&D Systems/Bio-techne
T2 sequence (P58215 26-753): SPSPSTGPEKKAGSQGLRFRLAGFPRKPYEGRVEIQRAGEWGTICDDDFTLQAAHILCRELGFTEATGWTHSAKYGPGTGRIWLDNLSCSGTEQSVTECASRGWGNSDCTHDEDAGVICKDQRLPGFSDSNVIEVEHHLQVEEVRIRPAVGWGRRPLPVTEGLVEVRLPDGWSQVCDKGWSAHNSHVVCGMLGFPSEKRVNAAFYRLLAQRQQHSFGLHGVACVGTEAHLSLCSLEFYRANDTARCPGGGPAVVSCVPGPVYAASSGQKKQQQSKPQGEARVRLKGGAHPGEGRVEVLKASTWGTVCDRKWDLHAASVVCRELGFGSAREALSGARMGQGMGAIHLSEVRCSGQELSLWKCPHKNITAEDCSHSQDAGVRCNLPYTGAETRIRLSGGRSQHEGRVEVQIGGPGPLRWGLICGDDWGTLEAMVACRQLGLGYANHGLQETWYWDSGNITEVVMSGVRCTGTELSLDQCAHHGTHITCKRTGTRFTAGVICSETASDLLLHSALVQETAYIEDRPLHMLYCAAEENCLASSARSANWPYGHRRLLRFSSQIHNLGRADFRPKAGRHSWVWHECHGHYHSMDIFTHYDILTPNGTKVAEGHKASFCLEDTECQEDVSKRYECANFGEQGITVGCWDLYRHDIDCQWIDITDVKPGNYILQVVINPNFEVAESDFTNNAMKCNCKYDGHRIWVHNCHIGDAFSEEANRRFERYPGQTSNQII
Method: LOX was extracted from pig skin by previously described methods (Shackleton and Hulmes, 1990). LOXL2 and LOXL3 were obtained from R&D Systems/Bio-techne. The Promega ROS Glo assay kit (G8821) was used to assess enzyme activity. Overall, test compound was added to either 384 well assay plates (Greiner) using a Labcyte Echo™ Acoustic Handler or to 96 well plates for a final assay concentration of 100, 30, 10, 3, 1, 0.3, 0.1, 0.03, 0.01 and 0.003 μM final assay concentration. Enzymes were diluted according to specific pre-determined activity in assay buffer (100 mM CHES, pH 9, 0.05% (w/v) pluronic F-127, 0.5% (w/v) BSA, 1 mM MgCl2, 1 M urea, 100 mM NaCl) and added to the plate. For LOXL2, the mixture was incubated for 20 min, 1 h or 20 h; for LOX and LOXL3, incubation time was 1 h. Cadaverine and H2O2 substrate were then added to each well (final assay concentration 19.56 mM and 25 μM respectively) and the plates were incubated for 1.5 h (for LOX) or 1 h (for LOXL2 and LOXL3) at room temperature. Finally, luciferin detection reagent was added and plates were incubated for 20 min at room temperature, protected from light. Luminescence was measured using a BMG LABTECH PHERAstar FS reader and resulting IC50 values were calculated using GraphPad Prism software.

[3] = LOX, 10 uM, DMSO = 0%, BAPN 1 mM = 100% inhibition, inhibitor added 30 min prior to imaging

SMILES | inhibition at 10 µM [1, 3] [%] | IC50 [2] [nM] | inhibition at 10 µM ([1]; LOX) [%] | further results
CCOc1ccc(N2CC3CN(CCS(=O)(=O)CCN)CC3C2)cc1 (centres unmarked) [Example 4, 2-((2-(5-(4-ethoxyphenyl)hexahydropyrolo [3,4-c]pyrrol-2(1H)-yl)ethyl)sulfonyl)ethan-1-amine] | 100 | – | – | –
CCOc1ccc(N2C[C@@H]3C[C@H]2CN3C(=O)CS(=O)(=O)CCN)cc1 [Example 8, 2-((2-aminoethyl)-sulfonyl)-1-((1S,4S)-5-(4-ethoxyphenyl)-2,5-diazabicyclo-[2.2.1]heptan-2-yl)-ethan-1-one] | – | 550 | – | inhibition at 2.5 µM ([1]; LOX, 2.5 uM (stated in cell), DMSO = 0%, BAPN 1 mM = 100% inhibition, read-out: Cyst LOX (% inhibition) @ 2.5 uM): 46%; IC50 ([1]; MDCK cysts, read-out: Cyst LOX IC50): 370 nM
CCOc1ccc(N2C[C@H]3CN(C(=O)CS(=O)(=O)CCN)C[C@@H]2C(C)(C)C3)cc1 [Example 7, 2-((2-aminoethyl)sulfonyl)-1-((1S,5S)-6-(4-ethoxyphenyl)-9,9-dimethyl-3,6-diazabicyclo[3.2.2]nonan-3-yl)ethan-1-one] | – | – | 79 | –
CCOc1ccc(N2C[C@H]3CN(c4ccc(S(=O)(=O)CCN)cc4)C[C@@H]2C(C)(C)C3)cc1 [Example 33, 2-((4-((1R,5S)-6-(4-ethoxyphenyl)-9,9-dimethyl-3,6-diazabicyclo [3.2.2]nonan-3-yl)phenyl)sulfonyl)ethan-1-amine] | 100 | – | – | –
NCCS(=O)(=O)CC(=O)N1CCN(c2ccccc2)CC1 [Example 13, 2-((2-Aminoethyl)-sulfonyl)-1-(4-phenylpiperazin-1-yl)ethan-1-one] | – | 280 | – | –
CCOc1ccc(N2C[C@H]3CN(C(=O)NCCS(=O)(=O)CCN)C[C@@H]2C(C)(C)C3)cc1 [Example 38, (1S,5S)—N-(2-((2-aminoethyl)sulfonyl)ethyl)-6-(4-ethoxyphenyl)-9,9-dimethyl-3,6-diazabicyclo[3.2.2]nonane-3-carboxamide] | – | – | 70 | –
